# Test results from US11040959B2, “Diprovocims: a new and potent class of TLR agonists” (The Scripps Research Institute, priority 2016, dated 2021).
# Like-named read-outs stand apart in the source and are kept apart here.
# Columns and labels:
# [1] = tested on: differentiated human THP-1 cells; test: stimulated release of TNF-α from differentiated human THP-1 cells (ELISA, dose-response); type: cell-based; conditions: Homo sapiens, read-out: EC50 (nM) (THP-1)
# Outline: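 Human THP-1 cells were PMA-differentiated toward macrophages, and stimulated TNF-α release was measured by ELISA. EC50 values were taken from dose-response curves.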
# mouse macrophages = test: stimulated release of TNF-α from mouse macrophages; type: cell-based; conditions: Macrophage, read-out: EC50 (nM) (mouse)
# Outline: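 EC50 derived from dose-response curves for stimulated TNF-α release from mouse macrophages.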
# [2] = THP-1, Table 3, TNF-α release from human THP-1 cells
# [3] = Table 3, TNF-α release from mouse macrophages
# [4] = THP-1, Table 7, TNF-α release from human THP-1 cells
# [5] = Table 7, TNF-α release from mouse macrophages
"EC50 [1, 2] [nM]",EC50 (mouse macrophages; [3]) [nM],"EC50 [1, 4] [nM]",EC50 (mouse macrophages; [5]) [nM],Compound
> 5000,> 5000,,,"O=C(N[C@H]1C[C@@H]1c1ccccc1)[C@@H]1CN(C(=O)/C=C/C=C/C(=O)N2C[C@@H](C(=O)N[C@H]3C[C@@H]3c3ccccc3)[C@H](C(=O)N[C@H]3C[C@@H]3c3ccccc3)C2)C[C@H]1C(=O)N[C@H]1C[C@@H]1c1ccccc1 [Compound 52, (3S,3′S,4S,4′S)-1,1′-((2E,4E)-Hexa-2,4-dienedioyl)-bis(N^3,N^4-bis((1S,2R)-2-phenylcyclopropyl)-pyrrolidine-3,4-dicarboxamide)]"
0.2,130,,,"O=C(N[C@H]1C[C@@H]1c1ccccc1)[C@@H]1CN(C(=O)c2ccc(C(=O)N3C[C@@H](C(=O)N[C@H]4C[C@@H]4c4ccccc4)[C@H](C(=O)N[C@H]4C[C@@H]4c4ccccc4)C3)c(O)c2)C[C@H]1C(=O)N[C@H]1C[C@@H]1c1ccccc1 [Compound 53, (3S,3′S,4S,4′S)-1,1′-(2-Hydroxyterephthaloyl)-bis(N^3,N^4-bis((1S,2R)-2-phenylcyclopropyl)pyrrolidine-3,4-dicarboxamide)]"
20,> 5000,,,"O=C(N[C@H]1C[C@@H]1c1ccccc1)[C@@H]1CN(C(=O)c2ccc(C(=O)N3C[C@@H](C(=O)N[C@H]4C[C@@H]4c4ccccc4)[C@H](C(=O)N[C@H]4C[C@@H]4c4ccccc4)C3)c([N+](=O)[O-])c2)C[C@H]1C(=O)N[C@H]1C[C@@H]1c1ccccc1 [Compound 54, (3S,3′S,4S,4′S)-1,1′-(2-Nitroterephthaloyl)-bis(N^3,N^4-bis((1S,2R)-2-phenylcyclopropyl)pyrrolidine-3,4-dicarboxamide)]"
1,140,,,"Nc1cc(C(=O)N2C[C@@H](C(=O)N[C@H]3C[C@@H]3c3ccccc3)[C@H](C(=O)N[C@H]3C[C@@H]3c3ccccc3)C2)ccc1C(=O)N1C[C@@H](C(=O)N[C@H]2C[C@@H]2c2ccccc2)[C@H](C(=O)N[C@H]2C[C@@H]2c2ccccc2)C1 [Compound 55, (3S,3′S,4S,4′S)-1,1′-(2-Amino-terephthaloyl)-bis(N^3,N^4-bis((1S,2R)-2-phenylcyclopropyl)-pyrrolidine-3,4-dicarboxamide)]"
15,750,,,"C#CCOc1cc(C(=O)N2C[C@@H](C(=O)N[C@H]3C[C@@H]3c3ccccc3)[C@H](C(=O)N[C@H]3C[C@@H]3c3ccccc3)C2)ccc1C(=O)N1C[C@@H](C(=O)N[C@H]2C[C@@H]2c2ccccc2)[C@H](C(=O)N[C@H]2C[C@@H]2c2ccccc2)C1 [Compound 56, (3S,3′S,4S,4′S)-1,1′-(2-(Prop-2-yn-1-yloxy)-terephthaloyl)bis(N^3,N^4-bis((1S,2R)-2-phenylcyclo-propyl)pyrrolidine-3,4-dicarboxamide)]"
30,250,,,"COc1cc(C(=O)N2C[C@@H](C(=O)N[C@H]3C[C@@H]3c3ccccc3)[C@H](C(=O)N[C@H]3C[C@@H]3c3ccccc3)C2)ccc1C(=O)N1C[C@@H](C(=O)N[C@H]2C[C@@H]2c2ccccc2)[C@H](C(=O)N[C@H]2C[C@@H]2c2ccccc2)C1 [Compound 57, (3S,3′S,4S,4′S)-1,1′-(2-Methoxy-terephthaloyl)-bis(N^3,N^4-bis((1S,2R)-2-phenylcyclopropyl)-pyrrolidine-3,4-dicarboxamide)]"
5,10,,,"O=C(N[C@H]1C[C@@H]1c1ccccc1)[C@@H]1CN(C(=O)c2ccc(C(=O)N3C[C@@H](C(=O)N[C@H]4C[C@@H]4c4ccccc4)[C@H](C(=O)N[C@H]4C[C@@H]4c4ccccc4)C3)c(Br)c2)C[C@H]1C(=O)N[C@H]1C[C@@H]1c1ccccc1 [Compound 58, (3S,3′S,4S,4′S)-1,1′-(2-Bromoterephthaloyl)-bis(N^3,N^4-bis((1S,2R)-2-phenylcyclopropyl)pyrrolidine-3,4-dicarboxamide)]"
20,> 5000,,,"O=C(N[C@H]1C[C@@H]1c1ccccc1)[C@@H]1CN(C(=O)c2cc(O)c(C(=O)N3C[C@@H](C(=O)N[C@H]4C[C@@H]4c4ccccc4)[C@H](C(=O)N[C@H]4C[C@@H]4c4ccccc4)C3)cc2O)C[C@H]1C(=O)N[C@H]1C[C@@H]1c1ccccc1 [Compound 59, (3S,3′S,4S,4′S)-1,1′-(2,5-Dihydroxy-terephthaloyl)bis(N^3,N^4-bis((1S,2R)-2-phenylcyclo-propyl)-pyrrolidine-3,4-dicarboxamide)]"
110,> 5000,,,"O=C(N[C@H]1C[C@@H]1c1ccccc1)[C@@H]1CN(C(=O)c2c(F)c(F)c(C(=O)N3C[C@@H](C(=O)N[C@H]4C[C@@H]4c4ccccc4)[C@H](C(=O)N[C@H]4C[C@@H]4c4ccccc4)C3)c(F)c2F)C[C@H]1C(=O)N[C@H]1C[C@@H]1c1ccccc1 [Compound 60, (3S,3′S,4S,4′S)-1,1′-(Perfluoroterephthaloyl)-bis(N^3,N^4-bis((1S,2R)-2-phenylcyclopropyl)pyrrolidine-3,4-dicarboxamide)]"
360,> 5000,,,"O=C(N[C@H]1C[C@@H]1c1ccccc1)[C@@H]1CN(C(=O)c2cc(Cl)c(C(=O)N3C[C@@H](C(=O)N[C@H]4C[C@@H]4c4ccccc4)[C@H](C(=O)N[C@H]4C[C@@H]4c4ccccc4)C3)cc2Cl)C[C@H]1C(=O)N[C@H]1C[C@@H]1c1ccccc1 [Compound 61, (3S,3′S,4S,4′S)-1,1′-(2,5-Dichloroterephthaloyl)-bis(N^3,N^4-bis((1S,2R)-2-phenylcyclopropyl)pyrrolidine-3,4-dicarboxamide)]"
860,> 5000,,,"O=C(N[C@H]1C[C@@H]1c1ccccc1)[C@@H]1CN(C(=O)c2cc(Br)c(C(=O)N3C[C@@H](C(=O)N[C@H]4C[C@@H]4c4ccccc4)[C@H](C(=O)N[C@H]4C[C@@H]4c4ccccc4)C3)cc2Br)C[C@H]1C(=O)N[C@H]1C[C@@H]1c1ccccc1 [Compound 62, (3S,3′S,4S,4′S)-1,1′-(2,5-Dibromoterephthaloyl)-bis(N^3,N^4-bis((1S,2R)-2-phenylcyclopropyl)pyrrolidine-3,4-dicarboxamide)]"
> 5000,> 5000,,,"Cc1cc(C(=O)N2C[C@@H](C(=O)N[C@H]3C[C@@H]3c3ccccc3)[C@H](C(=O)N[C@H]3C[C@@H]3c3ccccc3)C2)c(C)cc1C(=O)N1C[C@@H](C(=O)N[C@H]2C[C@@H]2c2ccccc2)[C@H](C(=O)N[C@H]2C[C@@H]2c2ccccc2)C1 [Compound 63, (3S,3′S,4S,4′S)-1,1′-(2,5-Dimethylterephthaloyl)-bis(N^3,N^4-bis((1S,2R)-2-phenylcyclopropyl)pyrrolidine-3,4-dicarboxamide)]"
,,> 5000,> 5000,"O=C(NCCc1ccc(F)cc1)[C@@H]1CN(C(=O)C#CC(=O)N2C[C@@H](C(=O)NCCc3ccc(F)cc3)[C@H](C(=O)NCCc3ccc(F)cc3)C2)C[C@H]1C(=O)NCCc1ccc(F)cc1 [Compound 100, (3S,3′S,4S,4′S)-1,1′-(But-2-ynedi-oyl)bis(N^3,N^4-bis(4-fluorophenethyl)pyrrolidine-3,4-dicarboxamide)]"
,,> 5000,> 5000,"O=C(NCCc1ccc(F)cc1)[C@@H]1CN(C(=O)/C=C/C(=O)N2C[C@@H](C(=O)NCCc3ccc(F)cc3)[C@H](C(=O)NCCc3ccc(F)cc3)C2)C[C@H]1C(=O)NCCc1ccc(F)cc1 [Compound 101, (3S,3′S,4S,4′S)-1,1′-Fumaroylbis-(N^3,N^4-bis(4-fluorophnethyl)pyrrolidine-3,4-dicarboxamide)]"
